Source: patent US20240425491A1, “HETEROARYL COMPOUNDS USEFUL IN THE TREATMENT OF COGNITIVE DISORDERS” (University College Cardiff Consultants Limited, priority 2021, published 2024)

Experiments:
[1] = target: T1, human recombinant GABAAR containing α5β3γ2 subunits (benzodiazepine site) (Homo sapiens, UniProt P18507+P31644); assay: In vitro radioligand binding assay (α5-GABAAR Ki); settings: inhibition of [3H]Ro15-1788 binding, membranes of L(tk−) cells expressing human α5β3γ2; read-out: α5-GABAAR Ki
T1 construct: expressed in transfected cells; host or cells: mouse L(tk−) cells, dexamethasone-inducible vector pMSGneo
Procedure, shortened: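 Displacement of 4 nM [^3H]flumazenil from the benzodiazepine site, read by filtration and scintillation, gave IC50, converted to Ki (Cheng-Prusoff, saturation-derived Kd). Receptor: human α5β3γ2 membranes from L(tk^−) cells, 50 μg protein/well; 1 h, 4° C; TP003 1 μM defined nonspecific binding.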

[2] = target: T2, human α5β3γ2 GABAARs in mouse L(tk−) cells (Homo sapiens, UniProt P18507+P31644); assay: In vitro electrophysiological recording assay (α5-GABAAR relative efficacy), QPatch; format: cell-based; settings: GABA EC10-20
T2 construct: expressed in transfected cells; host or cells: mouse L(tk−) cells, dexamethasone-inducible vector pMSGneo
Procedure, shortened: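 Whole-cell QPatch recordings at 20-22° C, −65 mV holding, in dexamethasone-induced (1 μM, 24 h) L(tk−) cells. Compound pre-applied ≥1 min, then co-applied with GABA EC10-20; percentage change in leak-corrected peak current, taken at ≥100× Ki, normalised to DMCM efficacy; 0.1% DMSO final.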

T2 sequence (P31644 32-462): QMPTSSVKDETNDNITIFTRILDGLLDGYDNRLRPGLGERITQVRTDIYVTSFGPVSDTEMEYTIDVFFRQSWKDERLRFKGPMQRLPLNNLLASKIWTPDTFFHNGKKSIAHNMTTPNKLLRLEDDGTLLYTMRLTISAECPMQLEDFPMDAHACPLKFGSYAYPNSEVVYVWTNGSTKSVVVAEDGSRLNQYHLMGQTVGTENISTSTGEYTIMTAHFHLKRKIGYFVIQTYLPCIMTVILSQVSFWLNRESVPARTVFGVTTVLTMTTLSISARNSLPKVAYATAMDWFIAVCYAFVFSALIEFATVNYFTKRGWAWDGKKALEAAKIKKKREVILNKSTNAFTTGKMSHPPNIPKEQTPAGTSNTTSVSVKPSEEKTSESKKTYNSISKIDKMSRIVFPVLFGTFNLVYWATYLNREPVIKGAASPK
T2 sequence (P28472 26-473 partner): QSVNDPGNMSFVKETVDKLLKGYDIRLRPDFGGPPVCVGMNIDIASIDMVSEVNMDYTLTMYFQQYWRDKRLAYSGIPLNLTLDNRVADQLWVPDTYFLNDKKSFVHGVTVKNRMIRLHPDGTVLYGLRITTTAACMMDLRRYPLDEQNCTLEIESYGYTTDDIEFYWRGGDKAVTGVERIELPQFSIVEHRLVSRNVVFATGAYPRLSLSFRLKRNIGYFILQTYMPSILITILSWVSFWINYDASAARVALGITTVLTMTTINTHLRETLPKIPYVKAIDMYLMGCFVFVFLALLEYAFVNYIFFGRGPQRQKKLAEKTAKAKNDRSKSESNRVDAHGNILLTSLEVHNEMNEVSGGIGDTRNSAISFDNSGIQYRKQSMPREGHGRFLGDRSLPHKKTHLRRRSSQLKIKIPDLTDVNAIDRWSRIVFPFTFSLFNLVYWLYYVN
T2 sequence (P18507 40-475): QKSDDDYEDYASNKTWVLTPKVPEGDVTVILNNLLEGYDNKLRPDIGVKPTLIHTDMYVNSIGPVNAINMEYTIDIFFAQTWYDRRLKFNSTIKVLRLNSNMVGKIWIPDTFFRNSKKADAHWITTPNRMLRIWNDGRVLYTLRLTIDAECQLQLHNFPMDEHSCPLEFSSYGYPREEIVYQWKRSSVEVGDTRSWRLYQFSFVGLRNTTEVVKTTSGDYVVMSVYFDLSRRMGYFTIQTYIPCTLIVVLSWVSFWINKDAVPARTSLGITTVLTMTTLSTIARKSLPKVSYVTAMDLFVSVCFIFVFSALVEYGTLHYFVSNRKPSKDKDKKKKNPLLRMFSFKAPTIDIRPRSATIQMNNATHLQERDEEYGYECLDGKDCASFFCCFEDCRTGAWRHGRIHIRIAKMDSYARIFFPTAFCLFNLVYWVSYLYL
T1 sequence (P31644 32-462): as the sequence (P31644 32-462) above
T1 sequence (P28472 26-473 partner): as the sequence (P28472 26-473 partner) above
T1 sequence (P18507 40-475): as the sequence (P18507 40-475) above

Ki [1]	α5-GABAAR Relative Efficacy (to DMCM), Qpatch ([2]; Conc 3 μM)	Structure (SMILES)	other results
1.2 nM		COc1nc(-c2ccc(CO)nc2)cnc1NC(=O)c1c(-c2ccccc2)noc1C [Example 148, N-[5-[6-(Hydroxymethyl)-3-pyridyl]-3-methoxy-pyrazin-2-yl]-5-methyl-3-phenyl-isoxazole-4-carboxamide]	α5-GABAAR Relative Efficacy (to DMCM), Qpatch ([2]; Conc 0.3 μM): −0.80
5.2 nM		COc1nc(-c2ccc(=O)n(C)c2)cnc1NC(=O)c1c(-c2ccccc2)noc1C [Example 149, N-[3-Methoxy-5-(1-methyl-6-oxo-3-pyridyl)pyrazin-2-yl]-5-methyl-3-phenyl-isoxazole-4-carboxamide]	α5-GABAAR Relative Efficacy (to DMCM), Qpatch ([2]; Conc 1 μM): −0.66
5.1 nM		COc1nc(-c2cnc(N)cn2)cnc1NC(=O)c1c(-c2ccccc2)noc1C [Example 150, N-[5-(5-Aminopyrazin-2-yl)-3-methoxy-pyrazin-2-yl]-5-methyl-3-phenyl-isoxazole-4-carboxamide]	α5-GABAAR Relative Efficacy (to DMCM), Qpatch ([2]; Conc 1 μM): −0.83
45.1 nM	−0.89	COc1nc(-n2ccnc2)ccc1NC(=O)c1c(C)nnn1-c1ccccc1 [Example 151, N-(6-(1H-Imidazol-1-yl)-2-methoxypyridin-3-yl)-4-methyl-1-phenyl-1H-1,2,3-triazole-5-carboxamide]	
22.9 nM	−0.27	COc1nc(-n2cnc(CN(C)C)c2)ccc1NC(=O)c1c(-c2ccccc2)noc1C [Example 152, N-[6-[4-[(Dimethylamino)methyl]imidazol-1-yl]-2-methoxy-3-pyridyl]-5-methyl-3-phenyl-isoxazole-4-carboxamide]	
1.7 nM		COc1nc(-n2cncc2CN(C)C)ccc1NC(=O)c1c(-c2ccccc2)noc1C [Example 153, N-[6-[5-[(Dimethylamino)methyl]imidazol-1-yl]-2-methoxy-3-pyridyl]-5-methyl-3-phenyl-isoxazole-4-carboxamide]	α5-GABAAR Relative Efficacy (to DMCM), Qpatch ([2]; Conc 0.3 μM): −0.83
25.3 nM	−0.89	COc1nc(-n2ccnc2)ccc1NC(=O)c1c(-c2ccccc2)nnn1C [Example 154, N-(6-(1H-Imidazol-1-yl)-2-methoxypyridin-3-yl)-1-methyl-4-phenyl-1H-1,2,3-triazole-5-carboxamide]	
2.3 nM		COc1nc(-c2cnc3n2CCOC3)cnc1NC(=O)c1c(-c2ccccc2)noc1C [Example 155, N-[5-(6,8-Dihydro-5H-imidazo[2,1-c][1,4]oxazin-3-yl)-3-methoxy-pyrazin-2-yl]-5-methyl-3-phenyl-isoxazole-4-carboxamide]	α5-GABAAR Relative Efficacy (to DMCM), Qpatch ([2]; Conc 0.3 μM): −0.91
28 nM	−0.77	COc1nc(-c2ccc(CO)nc2)ccc1NC(=O)c1c(C)nnn1-c1ccccc1 [Example 160, N-(6′-(Hydroxymethyl)-6-methoxy-[2,3′-bipyridin]-5-yl)-4-methyl-1-phenyl-1H-1,2,3-triazole-5-carboxamide]	
61.5 nM		COc1nc(-c2cnc(CN(C)C)nc2)ccc1NC(=O)c1c(C)nnn1-c1ccccc1 [Example 161, N-(6-(2-((Dimethylamino)methyl)pyrimidin-5-yl)-2-methoxypyridin-3-yl)-4-methyl-1-phenyl-1H-1,2,3-triazole-5-carboxamide]	α5-GABAAR Relative Efficacy (to DMCM), Qpatch ([2]; Conc 10 μM): −0.71
33.6 nM	−0.90	CCOc1ncc(-c2ccc(NC(=O)c3c(C)nnn3-c3ccccc3)c(OC)n2)cn1 [Example 162, N-(6-(2-Ethoxypyrimidin-5-yl)-2-methoxypyridin-3-yl)-4-methyl-1-phenyl-1H-1,2,3-triazole-5-carboxamide]	
4.1 nM		COc1nc(-c2cnc(OCCN(C)C)nc2)ccc1NC(=O)c1c(-c2ccccc2)noc1C [Example 163, N-[6-[2-[2-(Dimethylamino)ethoxy]pyrimidin-5-yl]-2-methoxy-3-pyridyl]-5-methyl-3-phenyl-isoxazole-4-carboxamide]	α5-GABAAR Relative Efficacy (to DMCM), Qpatch ([2]; Conc 1 μM): −1.11
27.2 nM	−0.65	COc1nc(-c2c[nH]c(=O)c(F)c2)ccc1NC(=O)c1c(C)nnn1-c1ccccc1 [Example 164, N-(5′-Fluoro-6-methoxy-6′-oxo-1′,6′-dihydro-[2,3′-bipyridin]-5-yl)-4-methyl-1-phenyl-1H-1,2,3-triazole-5-carboxamide]	
35.4 nM	−0.84	COc1nc(-c2cnc(C(N)=O)nc2)ccc1NC(=O)c1c(C)nnn1-c1ccccc1 [Example 165, 5-(6-Methoxy-5-(4-methyl-1-phenyl-1H-1,2,3-triazole-5-carboxamido)pyridin-2-yl)pyrimidine-2-carboxamide]	
31 nM	−0.98	CNc1ncc(-c2ccc(NC(=O)c3c(C)nnn3-c3ccccc3)c(OC)n2)cn1 [Example 166, N-(2-Methoxy-6-(2-(methylamino)pyrimidin-5-yl)pyridin-3-yl)-4-methyl-1-phenyl-1H-1,2,3-triazole-5-carboxamide]	
0.7 nM		COc1nc(-c2cnc(NCCN(C)C)nc2)ccc1NC(=O)c1c(-c2ccccc2)noc1C [Example 167, N-[6-[2-[2-(Dimethylamino)ethylamino]pyrimidin-5-yl]-2-methoxy-3-pyridyl]-5-methyl-3-phenyl-isoxazole-4-carboxamide]	α5-GABAAR Relative Efficacy (to DMCM), Qpatch ([2]; Conc 1 μM): −0.92
0.2 nM		COc1nc(-c2cnc(C(=O)NCCN(C)C)nc2)ccc1NC(=O)c1c(-c2ccccc2)noc1C [Example 172, N-[6-[2-[2-(Dimethylamino)ethylcarbamoyl]pyrimidin-5-yl]-2-methoxy-3-pyridyl]-5-methyl-3-phenyl-isoxazole-4-carboxamide]	α5-GABAAR Relative Efficacy (to DMCM), Qpatch ([2]; Conc 0.1 μM): −0.80
1.4 nM		COc1nc(-c2ccn3nc(N)nc3c2)ccc1NC(=O)c1c(-c2ccccc2)nnn1C [Example 174, N-(6-(2-Amino-[1,2,4]triazolo[1,5-a]pyridin-7-yl)-2-methoxypyridin-3-yl)-1-methyl-4-phenyl-1H-1,2,3-5-carboxamide]	α5-GABAAR Relative Efficacy (to DMCM), Qpatch ([2]; Conc 0.3 μM): −0.84
0.5 nM		COc1nc(-c2cnc(NCCO)nc2)ccc1NC(=O)c1c(-c2ccccc2)noc1C [Example 175, N-[6-[2-(2-Hydroxyethylamino)pyrimidin-5-yl]-2-methoxy-3-pyridyl]-5-methyl-3-phenyl-isoxazole-4-carboxamide]	α5-GABAAR Relative Efficacy (to DMCM), Qpatch ([2]; Conc 0.1 μM): −0.89
9 nM		Cc1onc(-c2ccccc2)c1C(=O)Nc1ccc(-n2ccnc2)nc1N(C)C [Example 176, N-[2-(Dimethylamino)-6-imidazol-1-yl-3-pyridyl]-5-methyl-3-phenyl-isoxazole-4-carboxamide]	α5-GABAAR Relative Efficacy (to DMCM), Qpatch ([2]; Conc 1 μM): −0.36

Structure (SMILES)	Ki [1]	α5-GABAAR Relative Efficacy (to DMCM), Qpatch ([2]; Conc 3 μM)	other results
CNCc1ncc(-c2ccc(NC(=O)c3c(-c4ccccc4)noc3C)c(OC)n2)cn1.Cl [Example 168, N-[2-Methoxy-6-[2-(methylaminomethyl)pyrimidin-5-yl]-3-pyridyl]-5-methyl-3-phenyl-isoxazole-4-carboxamide hydrochloride]	2.7 nM		α5-GABAAR Relative Efficacy (to DMCM), Qpatch ([2]; Conc 0.3 μM): −0.72
CNCc1ncc(-c2cnc(NC(=O)c3c(-c4ccccc4)noc3C)c(OC)n2)cn1.Cl [Example 169, N-[3-Methoxy-5-[2-(methylaminomethyl)pyrimidin-5-yl]pyrazin-2-yl]-5-methyl-3-phenyl-isoxazole-4-carboxamide hydrochloride]	5.2 nM		α5-GABAAR Relative Efficacy (to DMCM), Qpatch ([2]; Conc 1 μM): −0.88
CNCCNc1ncc(-c2ccc(NC(=O)c3c(-c4ccccc4)noc3C)c(OC)n2)cn1.Cl [Example 170, N-[2-Methoxy-6-[2-[2-(methylamino)ethylamino]pyrimidin-5-yl]-3-pyridyl]-5-methyl-3-phenyl-isoxazole-4-carboxamide hydrochloride]	0.5 nM		α5-GABAAR Relative Efficacy (to DMCM), Qpatch ([2]; Conc 0.1 μM): −0.84
COc1nc(-c2cnc(NCCN)nc2)ccc1NC(=O)c1c(-c2ccccc2)noc1C.Cl [Example 171, N-[6-[2-(2-Aminoethylamino)pyrimidin-5-yl]-2-methoxy-3-pyridyl]-5-methyl-3-phenyl-isoxazole-4-carboxamide hydrochloride]	3.8 nM		α5-GABAAR Relative Efficacy (to DMCM), Qpatch ([2]; Conc 0.1 μM): −0.75
CNCCNC(=O)c1ncc(-c2ccc(NC(=O)c3c(-c4ccccc4)noc3C)c(OC)n2)cn1.Cl [Example 173, N-[2-Methoxy-6-[2-[2-(methylamino)ethylcarbamoyl]pyrimidin-5-yl]-3-pyridyl]-5-methyl-3-phenyl-isoxazole-4-carboxamide hydrochloride]	0.3 nM		α5-GABAAR Relative Efficacy (to DMCM), Qpatch ([2]; Conc 0.1 μM): −0.88
COc1nc(-n2cnc3c2CCNC3)ccc1NC(=O)c1c(-c2ccccc2)noc1C.Cl [Example 178, N-[2-methoxy-6-(4,5,6,7-tetrahydroimidazo[4,5-c]pyridin-1-yl)-3-pyridyl]-5-methyl-3-phenyl-isoxazole-4-carboxamide hydrochloride]	2 nM		α5-GABAAR Relative Efficacy (to DMCM), Qpatch ([2]; Conc 0.3 μM): −0.62
CNCc1ccc(-c2ccc(NC(=O)c3c(-c4ccccc4)noc3C)c(OC)n2)cc1.Cl [Example 183, N-[2-Methoxy-6-[4-(methylaminomethyl)phenyl]-3-pyridyl]-5-methyl-3-phenyl-isoxazole-4-carboxamide hydrochloride]	14.2 nM	−0.68	
